{
  "source": "patent US10307357B2",
  "about": "“Prebiotic oral care compositions containing an alkyl glycoside” (COLGATE-PALMOLIVE COMPANY, priority 2013, dated 2019)",
  "type_in_all_cases": "cell-based",
  "key": {"[1]": {"tested_on": "beneficial oral and pathogenic oral bacteria", "assay": "Twenty-four hour optical density, conclusion over the panel", "details": "at concentrations of 10, 20 and 25 μmol/ml; threshold 1.25", "source_text": "Substrates that were able to increase the growth (or maximal growth density or extent of growth) of at least one of the above beneficial bacteria while not or only minimally increasing the growth (or maximal growth density) of the pathogenic bacteria are considered to be prebiotic compounds. The extent of growth of the tested bacteria in response to selected glycosides (β-methyl-D-galactoside and α-methyl-D-galactoside) was investigated by setting up growth curves in a nutritionally rich medium (brain heart infusion broth (BHI), Oxoid), over 24 hours. […] For each combination of bacterium/glycoside, and for each of their respective controls (i.e. the particular bacterium in the nutritionally rich medium with no glycoside), the optical density was measured at 630 nm (OD630) at 0 h and 24 h (Thermo Scientific Multiskan Ascent). Additionally, the OD630 for combinations of bacterium/glycosides grown in a 5% CO2 environment were also measured every hour between 0 h and 9 h. […] For each day and for each combination, the average (mean) of the values obtained (as detailed above) for the four technical replicas was calculated to provide a single value for each combination on each day. […]"}, "[2]": {"tested_on": "Porphyromonas gingivalis", "assay": "Mixed culture (dual-species) competition, selective plating", "details": "C: with S. salivarius; after only 24 h", "description": "(§1) The pathogenic species Prevotella intermedia, Aggregatibacter actinomyctemcomitans, Porphyromonas gingivalis, Fusobacterium nucleatum, Streptococcus mutans and beneficial species Streptococcus salivarius are used as model organisms for experiments. Bacterial strains are grown on blood agar plates (Oxoid, Basingstoke, UK) supplemented with 5 μg/ml hemin (Sigma Chemical Co, St. Louis, Mo.), 1 μg/ml menadion and 5% sterile horse blood (Biotrading, Keerbergen, Belgium). Bacteria are collected from blood agar plates and transferred to 10 ml brain heart infusion broth (BHI) (Difco Laboratories, Detroit, Mich.). P. intermedia, P. gingivalis, and F. nucleatum were incubated overnight at 37° C. in an anaerobic atmosphere, A. actinomycetemcomitans, S. mutans and S. salivarius are incubated overnight at 37° C. in a 5% CO2 environment. Bacterial concentration is adjusted by measuring optical density at 600 nm.\n(§2) In vitro effect of β-methyl-D-galactoside on pathogens: Bacterial solutions of periodontopathogens, P. intermedia, F. nucleatum, A. actinomycetemcomitans and P. gingivalis, cariogenic species S. mutans and beneficial species, S. salivarius, are prepared of which the optical density was adjusted to 1×10^7 CFU/ml. Experiments are carried out as a dual-species model in 24 well plates containing one pathogen (1 ml) and S. salivarius (1 ml). Different conditions are tested: the two microorganisms with (C) or without (D) β-methyl-D-galactoside (200 μl, dissolved in AD (aqua distillata)), only the periodontopathogen with (B) or without (A) β-methyl-D-galactoside (200 μl). β-methyl-D-galactoside is used at a final concentration of 1 mg/ml. When S. salivarius is not added to the mixture, BHI is added to obtain an equal volume. When β-methyl-D-galactoside is not added to the mixture, AD was added to obtain an equal volume. Plates are incubated at 37° C. in an anaerobic atmosphere. Selective microbial plating is carried out at 0 h, 24 h, and 48 h. Selective agar plates are prepared for each bacterium. P. intermedia and P. gingivalis are cultured on CDC anaerobe 5% sheep blood agar (Becton Dickinson, Franklin Lakes, N.J.), A. actinomycetemcomitans on Tryptic soy serum bacitracin vancomycin agar (TSBV) (Oxoid, Basingstoke, UK), F. nucleatum on crystal violet erythromycin (CVE) agar (Oxoid, Basingstoke, UK), S. mutans on tryptone yeast extract cystine sucrose bacitracin (TYCSB) agar (Oxoid, Basingstoke, UK) and S. salivarius on Phenylethyl alcohol agar (Becton Dickinson, Franklin Lakes, N.J.).\n(§3) Statistical analysis: For statistical analysis of the data, the data are log10 transformed to obtain a normal distribution. A linear mixed model is built to assess differences between treatments. A correction for multiple hypothesis testing is carried out."}, "[3]": {"tested_on": "Aggregatibacter actinomycetemcomitans", "assay": "Mixed culture (dual-species) competition, selective plating", "details": "C: with S. salivarius; after only 24 h", "description": "as §1, §2, §3"}, "[4]": {"tested_on": "Fusobacterium nucleatum", "assay": "Mixed culture (dual-species) competition, selective plating", "details": "C: with S. salivarius; after 48 h", "description": "as §1, §2, §3"}, "[5]": {"tested_on": "Prevotella intermedia", "assay": "Mixed culture (dual-species) competition, selective plating", "details": "C: with S. salivarius; after 48 h", "description": "as §1, §2, §3"}, "[6]": {"tested_on": "Streptococcus mutans", "assay": "Mixed culture (dual-species) competition, selective plating", "details": "β-methyl-D-galactoside and S. salivarius present; p=0.9999", "description": "as §1, §2, §3"}, "[7]": {"tested_on": "periodontopathogens", "assay": "Mixed culture competition, conclusion over periodontopathogens", "details": "S. salivarius and β-methyl-D-galactoside added (C) compared with A, B, after 24 h and 48 hours, p<0.001", "description": "as §1\nIn vitro effect of β-methyl-D-galactoside on pathogens: Bacterial solutions of periodontopathogens, P. intermedia, F. nucleatum, A. actinomycetemcomitans and P. gingivalis, cariogenic species S. mutans and beneficial species, S. salivarius, are prepared of which the optical density was adjusted to 1×10^7 CFU/ml. Experiments are carried out as a dual-species model in 24 well plates containing one pathogen (1 ml) and S. salivarius (1 ml). […]"}},
  "data": [
    {"smiles": "CO[C@@H]1O[C@H](CO)[C@H](O)[C@H](O)[C@H]1O", "note": "[β-methyl-D-galactoside]", "values": [
      {"measurement": "prebiotic effect (extent of growth), in words", "setting": "[1]", "value": "exhibited prebiotic effects"},
      {"measurement": "concentration of pathogen, in words", "setting": "[2]", "value": "decline in concentration to zero"},
      {"measurement": "concentration of pathogen, in words", "setting": "[3]", "value": "decline in concentration to zero"},
      {"measurement": "pathogen numbers, in words", "setting": "[4]", "value": "significantly lower but remained slightly above zero"},
      {"measurement": "pathogen numbers, in words", "setting": "[5]", "value": "significantly lower but remained slightly above zero"},
      {"measurement": "reduction of pathogen, in words", "setting": "[6]", "value": "no reduction is observed"},
      {"measurement": "number of periodontopathogens, in words", "setting": "[7]", "value": "significant decrease"}
    ]}
  ]
}
